Measurements as given in the NIST ThermoML archive (doi:10.1021/je060291c).
Values joined by “and” are separate entries in the source; they are usually repeats but may differ in a detail not shown here. Identical values can stand only once.

Assay: wn = mass fraction of the nth substance listed
Conditions: Liquid, Pulse-echo method, w2 = 0.49

CC(F)(F)F [1,1,1-trifluoroethane] + FC(F)C(F)(F)F
speed of sound
Conditions | 288.18 K | 298.19 K | 308.19 K | 318.2 K | 328.17 K | 338.18 K
1290 kPa | – | 375.4 m/s | – | – | – | –
1300 kPa | – | 375.4 m/s and 375.5 m/s | – | – | – | –
1360 kPa | – | 376.9 m/s | – | – | – | –
1510 kPa | – | 379.6 m/s | – | – | – | –
1630 kPa | – | 381.8 m/s | – | – | – | –
1670 kPa | – | – | 324.1 m/s and 324.2 m/s | – | – | –
1740 kPa | – | – | 326 m/s | – | – | –
1750 kPa | – | 384.2 m/s | – | – | – | –
1840 kPa | – | – | 328.4 m/s | – | – | –
2010 kPa | 440.2 m/s | 388.7 m/s | 332.4 m/s | – | – | –
2120 kPa | – | – | – | 270.3 m/s | – | –
2180 kPa | – | – | – | 272.6 m/s | – | –
2250 kPa | 444 m/s | 393 m/s | 338 m/s | 274.9 m/s | – | –
2360 kPa | – | – | – | 278.2 m/s | – | –
2510 kPa | 447.4 m/s | 397.3 m/s | 343.6 m/s | 282.9 m/s | – | –
2660 kPa | – | – | – | – | 211.8 m/s and 211.9 m/s | –
2750 kPa | 450.9 m/s | 401.5 m/s | 348.9 m/s | 290.4 m/s | 216.9 m/s | –
2880 kPa | – | – | – | – | 223.4 m/s | –
3010 kPa | 454.3 m/s | 405.6 m/s | 354 m/s | 297.5 m/s | 229.4 m/s | –
3380 kPa | – | – | – | – | – | 154.6 m/s
3440 kPa | – | – | – | – | – | 160.1 m/s
3500 kPa | 460.9 m/s | 413.4 m/s | 363.8 m/s | 310.3 m/s | 249.7 m/s | 165.9 m/s
3660 kPa | – | – | – | – | – | 178.1 m/s
3830 kPa | – | – | – | – | – | 189 m/s
4000 kPa | 467.5 m/s | 421.1 m/s | 373.1 m/s | 322.1 m/s | 266.3 m/s | 199.1 m/s
4250 kPa | – | – | – | – | – | 211.1 m/s
4500 kPa | 473.5 m/s | 428.4 m/s | 381.8 m/s | 333 m/s | 280.9 m/s | 221.8 m/s
5000 kPa | 479.7 m/s | 435.4 m/s | 390.1 m/s | 343.1 m/s | 294 m/s | 240.3 m/s
6010 kPa | 491.5 m/s | 448.7 m/s | 405.6 m/s | 361.7 m/s | 316.6 m/s | 269.8 m/s
7010 kPa | 502.5 m/s | 461.1 m/s | 419.8 m/s | 378.2 m/s | 336.3 m/s | 293.8 m/s
8000 kPa | 513.1 m/s | 473 m/s | 433.3 m/s | 393.4 m/s | 353.7 m/s and 354 m/s and 353.9 m/s | 314.4 m/s
9000 kPa | 523.2 m/s | 484.3 m/s | 445.6 m/s | 407.7 m/s | 370 m/s | 333 m/s
10000 kPa | 532.9 m/s | 494.9 m/s | 457.5 m/s | 420.9 m/s | 384.7 m/s | 349.3 m/s
12000 kPa | 551.3 m/s | 515.1 m/s | 479.6 m/s | 445 m/s | 411.3 m/s | 378.7 m/s
14000 kPa | 568.6 m/s | 533.7 m/s | 499.8 m/s | 466.9 m/s | 435.1 m/s | 404.3 m/s
16010 kPa | 585 m/s | 551.1 m/s | 518.5 m/s | 487 m/s | 456.6 m/s | 427.4 m/s
18000 kPa | 600.2 m/s | 567.6 m/s | 536.1 m/s | 505.5 m/s | 476.5 m/s | 448.3 m/s
20000 kPa | 614.9 m/s | 583.2 m/s | 552.6 m/s | 523 m/s | 494.7 m/s | 467.8 m/s
23000 kPa | 635.8 m/s | 605.1 m/s | 575.7 m/s | 547.4 m/s | 520.4 m/s | 494.6 m/s
26000 kPa | 655.3 m/s | 625.5 m/s | 597.3 m/s | 569.9 m/s | 543.8 m/s | 519 m/s
29010 kPa | 673.8 m/s | 645.1 m/s | 617.4 m/s | 591 m/s | 565.9 m/s | 541.7 m/s
32000 kPa | 691.2 m/s | 663.2 m/s | 636.3 m/s | 610.7 m/s | 586.4 m/s | 563 m/s
35000 kPa | 708.3 m/s | 680.8 m/s | 654.6 m/s and 654.3 m/s | 629.4 m/s | 605.5 m/s and 605.8 m/s | 583 m/s
40000 kPa | 734.9 m/s | 708.2 m/s | 682.9 m/s | 658.7 m/s | 635.7 m/s | 613.8 m/s
45000 kPa | 759.7 m/s | 734 m/s | 709.3 m/s | 685.8 m/s | 663.5 m/s | 642.4 m/s
50000 kPa | 783.2 m/s | 758 m/s | 734 m/s | 711.3 m/s | 689.5 m/s | 669 m/s
55000 kPa | 805.1 m/s | 780.7 m/s and 780.9 m/s | 757.3 m/s and 757.1 m/s | 734.9 m/s | 714.1 m/s | 693.9 m/s
60000 kPa | 826.3 m/s | 802.3 m/s and 802.4 m/s | 779.5 m/s | 757.7 m/s | 737.1 m/s | 717.2 m/s
65000 kPa | 846.7 m/s | 823.1 m/s | 800.7 m/s | 779.3 m/s | 759 m/s | 739.8 m/s

Conditions | speed of sound [m/s]
298.19 K | 375.4
308.19 K | 324.2
318.2 K | 270.3
328.17 K | 211.8
